Test results reported in ChEMBL document CHEMBL1201862, “PubChem BioAssay data set” (2004).
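Cultured in 96-well plates, cells were exposed to test compound for 48 hours across five concentrations. The concentration for 50% growth inhibition is given as GI50.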 The source made the active and inactive calls. Cut-off read from the data, not from the text of the source: active = GI50 up to about 1.1 µM and inactive = higher.

What was measured:
Assay in all cases: NCI anticancer screen, dose series, 48 h
786-0 = test system: 786-0
A498 = test system: A498
A549 = test system: A549
ACHN = test system: ACHN
BT-549 = test system: BT-549
CAKI-1 = test system: CAKI-1
CCRF-CEM = test system: CCRF-CEM
COLO 205 = test system: COLO 205
DU-145 = test system: DU-145
EKVX = test system: EKVX
HCC 2998 = test system: HCC 2998
HCT-116 = test system: HCT-116
HCT-15 = test system: HCT-15
HL-60 = test system: HL-60
HOP-62 = test system: HOP-62
HT-29 = test system: HT-29
Hs-578T = test system: Hs-578T
IGROV-1 = test system: IGROV-1
K562 = test system: K562
KM12 = test system: KM12
LOX IMVI = test system: LOX IMVI
M14 = test system: M14
MCF7 = test system: MCF7
MDA-MB-231 = test system: MDA-MB-231
MDA-MB-435 = test system: MDA-MB-435
MDA-N = test system: MDA-N
MOLT-4 = test system: MOLT-4
Malme-3M = test system: Malme-3M
NCI-H23 = test system: NCI-H23
NCI-H460 = test system: NCI-H460
NCI-H522 = test system: NCI-H522
NCI/ADR-RES = test system: NCI/ADR-RES
OVCAR-3 = test system: OVCAR-3
OVCAR-4 = test system: OVCAR-4
OVCAR-5 = test system: OVCAR-5
OVCAR-8 = test system: OVCAR-8
PC-3 = test system: PC-3
RPMI-8226 = test system: RPMI-8226
RXF 393 = test system: RXF 393
SF-268 = test system: SF-268
SF-295 = test system: SF-295
SF-539 = test system: SF-539
SK-MEL-28 = test system: SK-MEL-28
SK-MEL-2 = test system: SK-MEL-2
SK-MEL-5 = test system: SK-MEL-5
SK-OV-3 = test system: SK-OV-3
SN12C = test system: SN12C
SNB-19 = test system: SNB-19
SR = test system: SR
SW-620 = test system: SW-620
T47D = test system: T47D
TK-10 = test system: TK-10
U-251 = test system: U-251
UACC-257 = test system: UACC-257
UACC-62 = test system: UACC-62
UO-31 = test system: UO-31
HOP-92 = test system: HOP-92
NCI-H226 = test system: NCI-H226
SNB-75 = test system: SNB-75

Measured: GI50

COC(=O)c1c(C)[n+]([O-])c2cc(Cl)c(Cl)cc2[n+]1[O-]
inactive: 786-0 27.2 µM | A498 10.2 µM | A549 8.07 µM | ACHN 15.8 µM | BT-549 22.6 µM | CAKI-1 20.7 µM | CCRF-CEM 10.4 µM | COLO 205 12.2 µM | DU-145 12.5 µM | EKVX 19.5 µM | HCC 2998 16.1 µM | HCT-116 15.5 µM | HL-60 17.7 µM | HOP-62 26 µM | HT-29 18.7 µM | Hs-578T 21.9 µM | IGROV-1 4.39 µM | K562 32.2 µM | KM12 11.2 µM | LOX IMVI 8.65 µM | M14 24.5 µM | MCF7 14.5 µM | MDA-MB-231 19.4 µM | MDA-MB-435 18.6 µM | MDA-N 19.5 µM | MOLT-4 12.6 µM | Malme-3M 8.45 µM | NCI-H23 30.1 µM | NCI-H460 5.38 µM | NCI-H522 10.1 µM | NCI/ADR-RES 13.9 µM | OVCAR-3 16.6 µM | OVCAR-4 19 µM | OVCAR-5 30.9 µM | OVCAR-8 16.6 µM | PC-3 22.4 µM | RPMI-8226 4.17 µM | RXF 393 32.9 µM | SF-268 23.4 µM | SF-295 19.6 µM | SF-539 18.9 µM | SK-MEL-28 27.4 µM | SK-MEL-2 19.4 µM | SK-MEL-5 8.71 µM | SK-OV-3 12.9 µM | SN12C 18.2 µM | SNB-19 27.4 µM | SR 6.17 µM | SW-620 18.3 µM | T47D 15.8 µM | TK-10 11.3 µM | U-251 16.5 µM | UACC-257 17.1 µM | UACC-62 15 µM | UO-31 15.8 µM
9.59 µM: HCT-15

CCOC(=O)c1c[nH]c2cc3c(cc2c1=O)CCS3
> 100 µM: HCT-15
inactive: 786-0 > 100 µM | A498 > 100 µM | A549 > 100 µM | ACHN > 100 µM | BT-549 > 100 µM | CAKI-1 > 100 µM | CCRF-CEM > 100 µM | COLO 205 > 100 µM | DU-145 > 100 µM | EKVX > 100 µM | HCC 2998 > 100 µM | HCT-116 37.9 µM | HL-60 91 µM | HOP-62 > 100 µM | HOP-92 > 100 µM | HT-29 61.2 µM | Hs-578T > 100 µM | IGROV-1 > 100 µM | K562 > 100 µM | KM12 > 100 µM | LOX IMVI > 100 µM | M14 > 100 µM | MCF7 > 100 µM | MDA-MB-231 > 100 µM | MDA-MB-435 > 100 µM | MDA-N > 100 µM | MOLT-4 > 100 µM | Malme-3M > 100 µM | NCI-H226 50.4 µM | NCI-H23 > 100 µM | NCI-H460 > 100 µM | NCI-H522 > 100 µM | NCI/ADR-RES > 100 µM | OVCAR-3 > 100 µM | OVCAR-4 > 100 µM | OVCAR-5 > 100 µM | OVCAR-8 > 100 µM | PC-3 > 100 µM | RPMI-8226 > 100 µM | RXF 393 57.8 µM | SF-268 > 100 µM | SF-295 > 100 µM | SF-539 > 100 µM | SK-MEL-28 > 100 µM | SK-MEL-2 > 100 µM | SK-MEL-5 > 100 µM | SK-OV-3 > 100 µM | SN12C > 100 µM | SNB-19 > 100 µM | SNB-75 > 100 µM | SW-620 > 100 µM | T47D > 100 µM | TK-10 > 100 µM | U-251 > 100 µM | UACC-257 > 100 µM | UACC-62 > 100 µM | UO-31 83.9 µM

CCOC(=O)Cc1c(C(=O)OCC)[n+]([O-])c2cc(Cl)c(Cl)cc2[n+]1[O-]
active: IGROV-1 1.01 µM | RPMI-8226 0.431 µM | SR 0.336 µM | T47D 0.982 µM
inactive: 786-0 1.54 µM | A498 2.31 µM | A549 1.76 µM | ACHN 1.76 µM | BT-549 2.45 µM | CAKI-1 2.97 µM | CCRF-CEM 3.13 µM | COLO 205 1.73 µM | DU-145 1.69 µM | EKVX 3.37 µM | HCC 2998 1.99 µM | HCT-116 1.77 µM | HL-60 2.81 µM | HOP-62 1.95 µM | HT-29 1.94 µM | Hs-578T 2.27 µM | K562 2.62 µM | KM12 1.32 µM | LOX IMVI 2 µM | M14 2.29 µM | MCF7 1.57 µM | MDA-MB-231 2.69 µM | MDA-MB-435 2.77 µM | MDA-N 2.62 µM | MOLT-4 1.56 µM | Malme-3M 1.4 µM | NCI-H23 2.18 µM | NCI-H460 1.45 µM | NCI-H522 1.84 µM | NCI/ADR-RES 2.78 µM | OVCAR-3 1.87 µM | OVCAR-4 1.89 µM | OVCAR-5 2.58 µM | OVCAR-8 2.34 µM | PC-3 2.1 µM | RXF 393 2.12 µM | SF-268 2.44 µM | SF-295 3.66 µM | SF-539 2.08 µM | SK-MEL-28 4.68 µM | SK-MEL-2 2.59 µM | SK-MEL-5 1.47 µM | SK-OV-3 3.77 µM | SN12C 2.49 µM | SNB-19 3.5 µM | SNB-75 1.53 µM | SW-620 1.52 µM | TK-10 1.28 µM | U-251 2.96 µM | UACC-257 2.22 µM | UACC-62 2.18 µM | UO-31 1.77 µM
1.42 µM: HCT-15

COc1ccc(N2C(=O)C3c4[nH]c5cc(Cl)ccc5c4C4CCC(C(C)(C)C)CC4C3C2=O)cc1 (stereo unspecified)
inactive: 786-0 > 100 µM | A549 60.7 µM | ACHN 61.1 µM | BT-549 > 100 µM | CCRF-CEM 37.9 µM | COLO 205 > 100 µM | DU-145 > 100 µM | EKVX 59.2 µM | HCC 2998 44 µM | HCT-116 55.6 µM | HL-60 26.9 µM | HOP-62 > 100 µM | HT-29 31.7 µM | Hs-578T 26.2 µM | IGROV-1 > 100 µM | K562 33.6 µM | KM12 65.8 µM | M14 > 100 µM | MCF7 33.7 µM | MDA-MB-231 > 100 µM | MDA-MB-435 > 100 µM | MDA-N > 100 µM | MOLT-4 15.6 µM | NCI-H226 > 100 µM | NCI-H23 93.3 µM | NCI-H460 35.9 µM | NCI-H522 > 100 µM | NCI/ADR-RES > 100 µM | OVCAR-3 67.6 µM | OVCAR-4 94.4 µM | OVCAR-8 > 100 µM | PC-3 29.2 µM | RPMI-8226 53.2 µM | RXF 393 > 100 µM | SF-268 > 100 µM | SF-295 > 100 µM | SF-539 96.8 µM | SK-MEL-28 > 100 µM | SK-MEL-5 > 100 µM | SK-OV-3 > 100 µM | SN12C 64.9 µM | SNB-19 > 100 µM | SNB-75 > 100 µM | SR 12.6 µM | SW-620 69.8 µM | T47D 66.4 µM | TK-10 > 100 µM | U-251 95.1 µM | UACC-257 > 100 µM | UACC-62 > 100 µM | UO-31 70.5 µM
87.5 µM: HCT-15

CCCCn1c(C)c2c(c1C)C(=O)N(CC(O)CN1CCc3ccccc3C1)C2=O (stereo unspecified)
active: SK-MEL-2 0.292 µM
> 100 µM: HCT-15
inactive: 786-0 45.8 µM | A498 29.8 µM | A549 88.3 µM | ACHN 36.7 µM | BT-549 > 100 µM | CAKI-1 80.2 µM | CCRF-CEM 69.8 µM | COLO 205 37.8 µM | DU-145 > 100 µM | EKVX 12.3 µM | HCC 2998 39.8 µM | HCT-116 47.9 µM | HL-60 98.4 µM | HOP-62 > 100 µM | HOP-92 > 100 µM | HT-29 37.8 µM | Hs-578T > 100 µM | IGROV-1 > 100 µM | K562 47.2 µM | KM12 57 µM | LOX IMVI 49.7 µM | M14 40.1 µM | MCF7 33.3 µM | MDA-MB-231 > 100 µM | MDA-MB-435 60.1 µM | MDA-N 70 µM | MOLT-4 38.3 µM | Malme-3M 93.3 µM | NCI-H226 68.7 µM | NCI-H23 56.5 µM | NCI-H460 86.7 µM | NCI-H522 > 100 µM | NCI/ADR-RES 59.7 µM | OVCAR-3 67.8 µM | OVCAR-4 56.9 µM | OVCAR-5 > 100 µM | OVCAR-8 > 100 µM | PC-3 56.6 µM | RPMI-8226 76.9 µM | RXF 393 67.6 µM | SF-268 > 100 µM | SF-295 42.4 µM | SF-539 69.8 µM | SK-MEL-28 > 100 µM | SK-MEL-5 31.5 µM | SK-OV-3 > 100 µM | SN12C 90.4 µM | SNB-19 > 100 µM | SNB-75 > 100 µM | SW-620 > 100 µM | T47D 35.6 µM | TK-10 67.3 µM | U-251 81.5 µM | UACC-257 33.4 µM | UACC-62 60 µM | UO-31 59 µM
